# Experimental data reported in patent publication US12187699B2, “GSPT1 compounds and methods of use of the novel compounds” (BRISTOL-MYERS SQUIBB COMPANY, priority 2022, dated 2025).
# Biological target: T1, ePL-tagged GSPT1 (Homo sapiens, UniProt P15170+Q96SW2)
# T1 construct: expressed in transfected cells; host or cells: DF15 multiple myeloma cells
# Experiment: GSPT1 DiscoverX Degradation Assay
# Type: cell-based
# Conditions: DF15 multiple myeloma cells expressing ePL-tagged GSPT1; twenty hours; minimum of percent of control curve (Ataluren control Y constant=0, DMSO control = Y max)
# Procedure: GSPT1 DiscoverX Degradation Assay.
# Compounds were dispensed by an acoustic dispenser (ATS Acoustic Transfer System from EDC Biosystems) into a 384-well in a 10 pt dose response curve using 3 fold dilutions starting at 10 uM and going down to 0.0005 uM in DMSO. A DMSO control is added to the assay. […] Assay plates were incubated at 37° C. with 5% CO2 for twenty hours. After incubation, 25 μl of the InCELL Hunter™ Detection Reagent Working Solution (DiscoverX, cat #96-0002, Fremont, CA) was added to each well and incubated at room temperature for 30 minutes protected from light. After 30 minutes, luminescence was read on a PHERAstar luminometer (Cary, NC).
# The minimum Y is reference to the Y constant. In the GSPT1 degradation assay, we use Ataluren® (luciferase inhibitor) as the control with a Y constant=0. The maximum limit is the Y max DMSO control. All percent of control GSPT1 degradation curves were processed and evaluated using Activity Base (IDBS).
# T1 sequence (P15170 whole entry): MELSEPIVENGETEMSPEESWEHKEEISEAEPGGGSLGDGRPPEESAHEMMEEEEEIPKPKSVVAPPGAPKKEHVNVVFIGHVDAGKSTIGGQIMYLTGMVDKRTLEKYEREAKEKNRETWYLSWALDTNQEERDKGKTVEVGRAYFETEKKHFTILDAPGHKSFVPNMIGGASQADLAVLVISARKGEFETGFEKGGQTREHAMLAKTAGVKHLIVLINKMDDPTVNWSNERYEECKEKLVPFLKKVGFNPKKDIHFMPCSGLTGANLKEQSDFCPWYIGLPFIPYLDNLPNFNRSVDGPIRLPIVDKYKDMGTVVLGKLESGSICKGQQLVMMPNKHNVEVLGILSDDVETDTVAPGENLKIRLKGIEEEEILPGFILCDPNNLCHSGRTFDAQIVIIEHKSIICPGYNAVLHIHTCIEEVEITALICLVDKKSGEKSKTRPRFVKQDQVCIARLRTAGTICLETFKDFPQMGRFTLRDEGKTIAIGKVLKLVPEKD
# T1 sequence (Q96SW2 whole entry): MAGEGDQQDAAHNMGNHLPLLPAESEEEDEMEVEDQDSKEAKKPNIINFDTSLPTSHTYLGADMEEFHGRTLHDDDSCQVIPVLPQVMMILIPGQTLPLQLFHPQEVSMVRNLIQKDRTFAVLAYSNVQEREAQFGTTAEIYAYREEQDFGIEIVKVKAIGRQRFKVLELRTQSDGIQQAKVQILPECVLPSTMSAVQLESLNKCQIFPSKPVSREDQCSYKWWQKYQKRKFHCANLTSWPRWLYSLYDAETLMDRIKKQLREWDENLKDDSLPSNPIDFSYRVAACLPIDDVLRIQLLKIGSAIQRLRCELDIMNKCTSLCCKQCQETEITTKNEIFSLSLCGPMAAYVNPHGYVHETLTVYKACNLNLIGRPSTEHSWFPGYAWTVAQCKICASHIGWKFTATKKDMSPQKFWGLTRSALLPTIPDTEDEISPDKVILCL
# T1 sequence (Q16531 whole entry partner): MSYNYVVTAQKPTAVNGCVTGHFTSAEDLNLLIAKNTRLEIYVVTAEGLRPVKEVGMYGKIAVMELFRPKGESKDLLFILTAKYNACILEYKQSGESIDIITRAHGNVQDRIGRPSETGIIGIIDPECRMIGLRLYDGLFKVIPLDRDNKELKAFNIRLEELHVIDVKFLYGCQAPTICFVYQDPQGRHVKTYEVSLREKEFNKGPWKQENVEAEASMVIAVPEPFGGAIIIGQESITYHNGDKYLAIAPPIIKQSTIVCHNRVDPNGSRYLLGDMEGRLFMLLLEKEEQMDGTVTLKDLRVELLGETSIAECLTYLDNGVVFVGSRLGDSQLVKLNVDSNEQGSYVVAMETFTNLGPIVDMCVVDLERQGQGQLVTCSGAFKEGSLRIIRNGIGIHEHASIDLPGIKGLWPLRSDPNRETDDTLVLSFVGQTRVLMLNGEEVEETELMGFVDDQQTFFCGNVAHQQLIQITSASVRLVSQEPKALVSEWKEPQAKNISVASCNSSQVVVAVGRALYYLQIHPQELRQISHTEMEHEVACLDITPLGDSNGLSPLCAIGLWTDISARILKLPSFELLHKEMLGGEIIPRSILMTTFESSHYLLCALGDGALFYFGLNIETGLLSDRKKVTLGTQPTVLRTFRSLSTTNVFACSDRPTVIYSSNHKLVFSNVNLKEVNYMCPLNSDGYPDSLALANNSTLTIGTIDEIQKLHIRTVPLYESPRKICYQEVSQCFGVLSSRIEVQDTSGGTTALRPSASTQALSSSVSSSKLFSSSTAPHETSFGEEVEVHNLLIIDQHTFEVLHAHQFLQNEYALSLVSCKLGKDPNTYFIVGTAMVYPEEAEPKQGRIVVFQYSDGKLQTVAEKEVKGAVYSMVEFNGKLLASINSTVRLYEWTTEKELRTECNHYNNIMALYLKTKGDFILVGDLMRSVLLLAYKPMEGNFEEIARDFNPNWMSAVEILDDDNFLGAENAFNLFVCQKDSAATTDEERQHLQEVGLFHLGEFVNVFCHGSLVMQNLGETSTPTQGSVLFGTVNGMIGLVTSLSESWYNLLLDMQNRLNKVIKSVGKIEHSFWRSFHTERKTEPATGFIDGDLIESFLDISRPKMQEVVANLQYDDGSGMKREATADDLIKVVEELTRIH
row,SMILES,GSPT1 Degradation Ymin
1,"O=C1CCC(N2Cc3cc(CNC(=O)Nc4ccc(OCc5ccc(CO)cc5)cc4)ccc3C2=O)C(=O)N1 (stereo not drawn) [Example 1, 1-((2-(2,6-dioxopiperidin-3-yl)-1-oxoisoindolin-5-yl)methyl)-3-(4-((4-(hydroxymethyl)benzyl)oxy)phenyl)urea]",3.00
2,"NCc1ccc(COc2ccc(NC(=O)NCc3ccc4c(c3)CN(C3CCC(=O)NC3=O)C4=O)cc2)cc1 (stereo not drawn) [Example 2, 1-[4-[[4-(aminomethyl)phenyl]methoxy]phenyl]-3-[[2-(2,6-dioxo-3-piperidyl)-1-oxo-isoindolin-5-yl]methyl]urea]",4.34
3,"NCc1ccccc1COc1ccc(NC(=O)NCc2ccc3c(c2)CN(C2CCC(=O)NC2=O)C3=O)cc1 (stereo not drawn) [Example 3, 1-(4-((2-(aminomethyl)benzyl)oxy)phenyl)-3-((2-(2,6-dioxopiperidin-3-yl)-1-oxoisoindolin-5-yl)methyl)urea]",7.30
4,"NCc1cccc(COc2ccc(NC(=O)NCc3ccc4c(c3)CN(C3CCC(=O)NC3=O)C4=O)cc2)c1 (stereo not drawn) [Example 4, 1-(4-((3-(aminomethyl)benzyl)oxy)phenyl)-3-((2-(2,6-dioxopiperidin-3-yl)-1-oxoisoindolin-5-yl)methyl)urea]",6.80
5,"Nc1cccc(COc2ccc(NC(=O)NCc3ccc4c(c3)CN(C3CCC(=O)NC3=O)C4=O)cc2)c1 (stereo not drawn) [Example 5, 1-(4-((3-aminobenzyl)oxy)phenyl)-3-((2-(2,6-dioxopiperidin-3-yl)-1-oxoisoindolin-5-yl)methyl)urea]",3.00
6,"O=C1CCC(N2Cc3cc(CNC(=O)Nc4ccc(OCc5ccccc5)cc4)ccc3C2=O)C(=O)N1 (stereo not drawn) [Example 6, 1-[4-(benzyloxy)phenyl]-3-{[2-(2,6-dioxopiperidin-3-yl)-1-oxo-2,3-dihydro-1H-isoindol-5-yl]methyl}urea]",3.00
7,"O=C1CCC(N2Cc3cc(CNC(=O)Nc4ccc(OCc5cccc(CO)c5)cc4)ccc3C2=O)C(=O)N1 (stereo not drawn) [Example 7, 1-((2-(2,6-dioxopiperidin-3-yl)-1-oxoisoindolin-5-yl)methyl)-3-(4-((3-(hydroxymethyl)benzyl)oxy)phenyl)urea]",4.00
8,"O=C1CCC(N2Cc3cc(CNC(=O)Nc4ccc(OCc5ccccc5CO)cc4)ccc3C2=O)C(=O)N1 (stereo not drawn) [Example 8, 1-((2-(2,6-dioxopiperidin-3-yl)-1-oxoisoindolin-5-yl)methyl)-3-(4-((2-(hydroxymethyl)benzyl)oxy)phenyl)urea]",4.00
9,"O=C1CCC(N2Cc3cc(CNC(=O)Nc4ccc(OCc5ccccc5O)cc4)ccc3C2=O)C(=O)N1 (stereo not drawn) [Example 9, 1-((2-(2,6-dioxopiperidin-3-yl)-1-oxoisoindolin-5-yl)methyl)-3-(4-((2-hydroxybenzyl)oxy)phenyl)urea]",3.50
10,"O=C1CCC(N2Cc3cc(CNC(=O)Nc4ccc(OCc5ccccc5O)cc4)ccc3C2=O)C(=O)N1 (stereo not drawn) [Example 10, 1-((2-(2,6-dioxopiperidin-3-yl)-1-oxoisoindolin-5-yl)methyl)-3-(4-((2-hydroxybenzyl)oxy)phenyl)urea]",4.00
11,"NCc1ccc(COc2ccc(NC(=O)NCc3ccc4c(c3)CN(C3CCC(=O)NC3=O)C4=O)cc2)c(F)c1 (stereo not drawn) [Example 11, 1-(4-{[4-(aminomethyl)-2-fluorophenyl]methoxy}phenyl)-3-{[2-(2,6-dioxopiperidin-3-yl)-1-oxo-2,3-dihydro-1H-isoindol-5-yl]methyl}urea]",6.71
12,"Cc1cc(CN)ccc1COc1ccc(NC(=O)NCc2ccc3c(c2)CN(C2CCC(=O)NC2=O)C3=O)cc1 (stereo not drawn) [Example 12, 1-(4-{[4-(aminomethyl)-2-methylphenyl]methoxy}phenyl)-3-{[2-(2,6-dioxopiperidin-3-yl)-1-oxo-2,3-dihydro-1H-isoindol-5-yl]methyl}urea]",5.39
13,"NCc1ccc(COc2ccc(NC(=O)NCc3ccc4c(c3)CN(C3CCC(=O)NC3=O)C4=O)cc2)nc1 (stereo not drawn) [Example 13, 1-(4-{[5-(aminomethyl)pyridin-2-yl]methoxy}phenyl)-3-{[2-(2,6-dioxopiperidin-3-yl)-1-oxo-2,3-dihydro-1H-isoindol-5-yl]methyl}urea]",6.75

# Results, then the molecule that gave them:
row,GSPT1 Degradation Ymin,SMILES
1,5.83,"NCc1ccc(COc2ccc(NC(=O)NCc3ccc4c(c3)CN(C3CCC(=O)NC3=O)C4=O)cc2)cn1 (stereo not drawn) [Example 14, 1-(4-{[6-(aminomethyl)pyridin-3-yl]methoxy}phenyl)-3-{[2-(2,6-dioxopiperidin-3-yl)-1-oxo-2,3-dihydro-1H-isoindol-5-yl]methyl}urea]"
2,3.10,"NCc1cnc(COc2ccc(NC(=O)NCc3ccc4c(c3)CN(C3CCC(=O)NC3=O)C4=O)cc2)nc1 (stereo not drawn) [Example 15, 1-(4-{[5-(aminomethyl)pyrimidin-2-yl]methoxy}phenyl)-3-{[2-(2,6-dioxopiperidin-3-yl)-1-oxo-2,3-dihydro-1H-isoindol-5-yl]methyl}urea]"
3,12.67,"NCc1ccc(COc2ccc(NC(=O)NCc3ccc4c(c3)CN(C3CCC(=O)NC3=O)C4=O)cc2)nn1 (stereo not drawn) [Example 16, 1-(4-{[6-(aminomethyl)pyridazin-3-yl]methoxy}phenyl)-3-{[2-(2,6-dioxopiperidin-3-yl)-1-oxo-2,3-dihydro-1H-isoindol-5-yl]methyl}urea]"
4,15.91,"Cc1cc(NC(=O)NCc2ccc3c(c2)CN(C2CCC(=O)NC2=O)C3=O)ccc1OCc1ccc(CN)cc1 (stereo not drawn) [Example 17, 1-(4-{[4-(aminomethyl)phenyl]methoxy}-3-methylphenyl)-3-{[2-(2,6-dioxopiperidin-3-yl)-1-oxo-2,3-dihydro-1H-isoindol-5-yl]methyl}urea]"
5,54.45,"NCc1ccc(COc2ccc(NC(=O)NCc3ccc4c(c3)CN(C3CCC(=O)NC3=O)C4=O)cc2F)cc1 (stereo not drawn) [Example 18, 1-(4-{[4-(aminomethyl)phenyl]methoxy}-3-fluorophenyl)-3-{[2-(2,6-dioxopiperidin-3-yl)-1-oxo-2,3-dihydro-1H-isoindol-5-yl]methyl}urea]"
6,6.55,"NCc1ccc(COc2ccc(NC(=O)NCc3ccc4c(c3)CN(C3CCC(=O)NC3=O)C4=O)nn2)cc1 (stereo not drawn) [Example 19, 1-(6-{[4-(aminomethyl)phenyl]methoxy}pyridazin-3-yl)-3-{[2-(2,6-dioxopiperidin-3-yl)-1-oxo-2,3-dihydro-1H-isoindol-5-yl]methyl}urea]"
7,7.50,"NCc1ccc(COc2ccc(NC(=O)NCc3ccc4c(c3)CN(C3CCC(=O)NC3=O)C4=O)cn2)cc1 (stereo not drawn) [Example 20, 1-(6-{[4-(aminomethyl)phenyl]methoxy}pyridin-3-yl)-3-{[2-(2,6-dioxopiperidin-3-yl)-1-oxo-2,3-dihydro-1H-isoindol-5-yl]methyl}urea]"
8,10.44,"CCc1cc(CN)ccc1COc1ccc(NC(=O)NCc2ccc3c(c2)CN(C2CCC(=O)NC2=O)C3=O)cc1 (stereo not drawn) [Example 21, 1-(4-{[4-(aminomethyl)-2-ethylphenyl]methoxy}phenyl)-3-{[2-(2,6-dioxopiperidin-3-yl)-1-oxo-2,3-dihydro-1H-isoindol-5-yl]methyl}urea]"
9,9.46,"CCCc1cc(CN)ccc1COc1ccc(NC(=O)NCc2ccc3c(c2)CN(C2CCC(=O)NC2=O)C3=O)cc1 (stereo not drawn) [Example 22, 1-(4-{[4-(aminomethyl)-2-n-propylphenyl]methoxy}phenyl)-3-{[2-(2,6-dioxopiperidin-3-yl)-1-oxo-2,3-dihydro-1H-isoindol-5-yl]methyl}urea]"
10,8.85,"COc1cc(CN)ccc1COc1ccc(NC(=O)NCc2ccc3c(c2)CN(C2CCC(=O)NC2=O)C3=O)cc1 (stereo not drawn) [Example 23, 1-(4-{[4-(aminomethyl)-2-methoxyphenyl]methoxy}phenyl)-3-{[2-(2,6-dioxopiperidin-3-yl)-1-oxo-2,3-dihydro-1H-isoindol-5-yl]methyl}urea]"
11,10.04,"CC(C)Oc1cc(CN)ccc1COc1ccc(NC(=O)NCc2ccc3c(c2)CN(C2CCC(=O)NC2=O)C3=O)cc1 (stereo not drawn) [Example 24, 1-(4-{[4-(aminomethyl)-2-(propan-2-yloxy)phenyl]methoxy}phenyl)-3-{[2-(2,6-dioxopiperidin-3-yl)-1-oxo-2,3-dihydro-1H-isoindol-5-yl]methyl}urea]"
12,5.50,"NCc1ccc(COc2ccc(NC(=O)NCc3ccc4c(c3)CN(C3CCC(=O)NC3=O)C4=O)cc2)c(Cl)c1 (stereo not drawn) [Example 25, 1-(4-{[4-(aminomethyl)-2-chlorophenyl]methoxy}phenyl)-3-{[2-(2,6-dioxopiperidin-3-yl)-1-oxo-2,3-dihydro-1H-isoindol-5-yl]methyl}urea]"
13,6.92,"NCc1ccc(COc2ccc(NC(=O)NCc3ccc4c(c3)CN(C3CCC(=O)NC3=O)C4=O)cc2)c(OC2COC2)c1 (stereo not drawn) [Example 26, 1-(4-{[4-(aminomethyl)-2-(oxetan-3-yloxy)phenyl]methoxy}phenyl)-3-{[2-(2,6-dioxopiperidin-3-yl)-1-oxo-2,3-dihydro-1H-isoindol-5-yl]methyl}urea]"
14,6.15,"NCc1ccc(COc2ccc(NC(=O)NCc3ccc4c(c3)CN(C3CCC(=O)NC3=O)C4=O)cc2)c(C2CC2)c1 (stereo not drawn) [Example 27, 1-(4-{[4-(aminomethyl)-2-cyclopropylphenyl]methoxy}phenyl)-3-{[2-(2,6-dioxopiperidin-3-yl)-1-oxo-2,3-dihydro-1H-isoindol-5-yl]methyl}urea]"
